Experimental data from PubChem BioAssay AID330 (DTP/NCI, 2004).
“And” between values parts separate entries of the source, which are not always exact repeats. Equal entries are not always repeated. Inconclusive results and toxic doses are left out. Rule for the calls: active = survival T/C of 150% or more; inactive = T/C below 125% in these data.

Test system: P388 leukemia ip, CD2F1 mice, survival T/C
Experiment: NCI In Vivo Anticancer Drug Screen. Data for tumor model P388 Leukemia (intraperitoneal) in CD2F1 (CDF1) mice
Details: endpoint: median survival time, higher = longer survival
Procedure, shortened: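 Mice carrying the transplanted tumor received test compound or vehicle. Survival was recorded in each group, and the value is the treated-group measurement divided by that of the vehicle-treated control group.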

[1] = dose: 25.0 mg/kg/injection, schedule: Q04DX003 (ip), vehicle: saline with Tween-80
[2] = dose: 100.0 mg/kg/injection, schedule: Q04DX003 (ip), vehicle: saline with Tween-80
[3] = dose: 200.0 mg/kg/injection, schedule: Q04DX003 (ip), vehicle: saline with Tween-80
[4] = dose: 60.0 mg/kg/injection, schedule: Q01DX005 (ip), vehicle: Klucel (hydroxypropylcellulose) (HPC)
[5] = dose: 120.0 mg/kg/injection, schedule: Q01DX005 (ip), vehicle: Klucel (hydroxypropylcellulose) (HPC)
[6] = dose: 240.0 mg/kg/injection, schedule: Q01DX005 (ip), vehicle: Klucel (hydroxypropylcellulose) (HPC)
[7] = dose: 50.0 mg/kg/injection, schedule: Q01DX005 (ip), vehicle: Klucel (hydroxypropylcellulose) (HPC)
[8] = dose: 100.0 mg/kg/injection, schedule: Q01DX005 (ip), vehicle: Klucel (hydroxypropylcellulose) (HPC)
[9] = dose: 200.0 mg/kg/injection, schedule: Q01DX005 (ip), vehicle: Klucel (hydroxypropylcellulose) (HPC)
[10] = dose: 60.0 mg/kg/injection, schedule: Q01DX005 (ip), vehicle: saline with Tween-80
[11] = dose: 120.0 mg/kg/injection, schedule: Q01DX005 (ip), vehicle: saline with Tween-80
[12] = dose: 15.0 mg/kg/injection, schedule: Q01DX005 (ip), vehicle: saline with Tween-80
[13] = dose: 30.0 mg/kg/injection, schedule: Q01DX005 (ip), vehicle: saline with Tween-80

Measured: T/C

ClCSc1nc2ccccc2o1
inactive: dose: 50.0 mg/kg/injection, schedule: Q04DX002 (ip), vehicle: saline with Tween-80 102 % of control | dose: 100.0 mg/kg/injection, schedule: Q04DX002 (ip), vehicle: saline with Tween-80 102 % of control | dose: 200.0 mg/kg/injection, schedule: Q04DX002 (ip), vehicle: saline with Tween-80 107 % of control

CCOC(=O)c1cnc[nH]c1=O
inactive: [1] 99 % of control | dose: 50.0 mg/kg/injection, schedule: Q04DX003 (ip), vehicle: saline with Tween-80 100 % of control | [2] 97 % of control | [3] 97 % of control

Brc1ccc2c(ccc3c2nnc2nccn23)c1
inactive: [4] 91 % of control and 95 % of control | [5] 97 % of control | [6] 86 % of control and 94 % of control

C[C@]12C=CC(=O)C=C1CC[C@@H]1[C@@H]2[C@@H](O)C[C@@]2(C)[C@H]1CC[C@]2(O)C(=O)CO
inactive: [7] 106 % of control | [8] 100 % of control | [9] 91 % of control | dose: 400.0 mg/kg/injection, schedule: Q01DX005 (ip), vehicle: Klucel (hydroxypropylcellulose) (HPC) 105 % of control

CC(C)C(Sc1nc(N)nc2nc[nH]c12)C(=O)O (centres undefined)
inactive: dose: 100.0 mg/kg/injection, schedule: Q01DX009 (ip), vehicle: saline with Tween-80 95 % of control | [2] 95 % of control | dose: 200.0 mg/kg/injection, schedule: Q01DX009 (ip), vehicle: saline with Tween-80 100 % of control | [3] 100 % of control | dose: 400.0 mg/kg/injection, schedule: Q01DX009 (ip), vehicle: saline with Tween-80 104 % of control | dose: 400.0 mg/kg/injection, schedule: Q04DX003 (ip), vehicle: saline with Tween-80 95 % of control

c1ccc(N2CCN(c3ccccc3)C2=C2N(c3ccccc3)CCN2c2ccccc2)cc1
inactive: dose: 3.0 mg/kg/injection, schedule: Q01DX005 (ip), vehicle: saline 105 % of control | dose: 6.0 mg/kg/injection, schedule: Q01DX005 (ip), vehicle: saline 107 % of control | dose: 12.0 mg/kg/injection, schedule: Q01DX005 (ip), vehicle: saline 105 % of control | dose: 12.5 mg/kg/injection, schedule: Q01DX005 (ip), vehicle: saline 114 % of control | dose: 25.0 mg/kg/injection, schedule: Q01DX005 (ip), vehicle: saline 99 % of control and 118 % of control

CCCCC1CCCCCCc2[nH]c(/C=C3\N=C(c4ccc[nH]4)C=C3OC)cc21 (centres undefined)
inactive: dose: 0.12 mg/kg/injection, schedule: Q01DX009 (ip), vehicle: saline with Tween-80 109 % of control and 116 % of control | dose: 0.25 mg/kg/injection, schedule: Q01DX009 (ip), vehicle: saline with Tween-80 110 % of control and 119 % of control | dose: 0.5 mg/kg/injection, schedule: Q01DX009 (ip), vehicle: saline with Tween-80 115 % of control and 123 % of control | dose: 1.0 mg/kg/injection, schedule: Q01DX009 (ip), vehicle: saline with Tween-80 111 % of control and 90 % of control

CC(=O)Nc1cc(NC(C)=O)cc(C(=O)O)c1
inactive: [4] 90 % of control | [5] 90 % of control | [6] 90 % of control

CC(=O)Oc1c([N+](=O)[O-])cccc1[N+](=O)[O-]
inactive: dose: 3.13 mg/kg/injection, schedule: Q01DX009 (ip), vehicle: distilled water + Tween-80 111 % of control | dose: 6.25 mg/kg/injection, schedule: Q01DX009 (ip), vehicle: clinical formulation 100 % of control | dose: 6.25 mg/kg/injection, schedule: Q01DX009 (ip), vehicle: distilled water + Tween-80 100 % of control and 112 % of control | dose: 12.5 mg/kg/injection, schedule: Q01DX009 (ip), vehicle: clinical formulation 103 % of control | dose: 12.5 mg/kg/injection, schedule: Q01DX009 (ip), vehicle: distilled water + Tween-80 107 % of control | dose: 25.0 mg/kg/injection, schedule: Q01DX009 (ip), vehicle: clinical formulation 108 % of control | dose: 25.0 mg/kg/injection, schedule: Q01DX009 (ip), vehicle: distilled water + Tween-80 107 % of control | dose: 50.0 mg/kg/injection, schedule: Q01DX009 (ip), vehicle: distilled water + Tween-80 109 % of control and 115 % of control | dose: 100.0 mg/kg/injection, schedule: Q01DX009 (ip), vehicle: distilled water + Tween-80 96 % of control

CCOC(=O)c1cnc2c(ccc3cc(OC)ccc32)c1NCCCN(CC)CC
inactive: dose: 25.0 mg/kg/injection, schedule: Q01DX005 (ip), vehicle: Klucel (hydroxypropylcellulose) (HPC) 97 % of control | [7] 97 % of control | [8] 100 % of control | [9] 97 % of control

O=C(CN1CCC(O)(c2ccc(F)cc2)CC1)N1CCN(C/C=C/c2ccccc2)CC1
inactive: [4] 96 % of control | [5] 95 % of control | [6] 95 % of control

COc1ccc(Cl)cc1NC(=O)Nc1nccs1
inactive: dose: 25.0 mg/kg/injection, schedule: Q01DX009 (ip), vehicle: Klucel (hydroxypropylcellulose) (HPC) 90 % of control | dose: 50.0 mg/kg/injection, schedule: Q01DX009 (ip), vehicle: Klucel (hydroxypropylcellulose) (HPC) 90 % of control | dose: 100.0 mg/kg/injection, schedule: Q01DX009 (ip), vehicle: Klucel (hydroxypropylcellulose) (HPC) 90 % of control | dose: 200.0 mg/kg/injection, schedule: Q01DX009 (ip), vehicle: Klucel (hydroxypropylcellulose) (HPC) 88 % of control

C=C1C(=O)C2=CC1CCC(=O)C1(C)C(OC(C)=O)CC(OC(C)=O)C(C)(C)C1CC2O (centres undefined)
inactive: dose: 17.5 mg/kg/injection, schedule: Q01DX005 (ip), vehicle: Klucel (hydroxypropylcellulose) (HPC) 108 % of control | dose: 35.0 mg/kg/injection, schedule: Q01DX005 (ip), vehicle: Klucel (hydroxypropylcellulose) (HPC) 109 % of control | dose: 70.0 mg/kg/injection, schedule: Q01DX005 (ip), vehicle: Klucel (hydroxypropylcellulose) (HPC) 111 % of control

COC(=O)C(Cc1c[nH]c2ccccc12)NC(=O)C(CCCCN)N(C(=O)OCc1ccccc1)C(=O)OCc1ccccc1 (centres undefined)
inactive: dose: 50.0 mg/kg/injection, schedule: Q01DX005 (ip), vehicle: saline with Tween-80 92 % of control | dose: 100.0 mg/kg/injection, schedule: Q01DX005 (ip), vehicle: saline with Tween-80 91 % of control | dose: 200.0 mg/kg/injection, schedule: Q01DX005 (ip), vehicle: saline with Tween-80 86 % of control

O=c1c2ccccc2oc2c(Br)c3c(c(O)c12)CCCC3
inactive: [7] 103 % of control | [8] 87 % of control | [9] 96 % of control

COc1ccc(/C=N/N2CN(C(C)C(=O)O)P(N(CCO)CCO)N=C2N)cc1OC (centres undefined)
inactive: [10] 104 % of control | [11] 99 % of control | dose: 240.0 mg/kg/injection, schedule: Q01DX005 (ip), vehicle: saline with Tween-80 99 % of control

Cc1ccc(/C=C2/N=C([Se])N(C)C2=O)cc1
inactive: [12] 100 % of control | [13] 95 % of control | [10] 101 % of control | [11] 86 % of control

O=S(=O)(F)c1ccc(N=C=S)cc1
inactive: dose: 6.25 mg/kg/injection, schedule: Q04DX003 (ip), vehicle: saline with Tween-80 100 % of control | dose: 12.5 mg/kg/injection, schedule: Q04DX003 (ip), vehicle: saline with Tween-80 104 % of control | [1] 109 % of control

O=C1Cc2csc3nc(=O)cc(n23)N1
inactive: dose: 50.0 mg/kg/injection, schedule: Q01DX005 (ip), vehicle: saline 94 % of control | dose: 100.0 mg/kg/injection, schedule: Q01DX005 (ip), vehicle: saline 97 % of control | dose: 200.0 mg/kg/injection, schedule: Q01DX005 (ip), vehicle: saline 88 % of control

COC1c2ccccc2C=CN1C#N (centres undefined)
inactive: dose: 50.0 mg/kg/injection, schedule: Q01DX005 (ip), vehicle: distilled water + Tween-80 + alcohol 105 % of control | dose: 100.0 mg/kg/injection, schedule: Q01DX005 (ip), vehicle: distilled water + Tween-80 + alcohol 107 % of control

CC1=Nc2nc(=NCCCN(C)C)nc3cccc(n23)N1
inactive: [12] 99 % of control | [13] 100 % of control | [10] 104 % of control and 97 % of control
